In US11365199B2, “Pyrazole compounds as modulators of FSHR and uses thereof” (Merck Patent GmbH, priority 2013, dated 2022) one finds EC50 and Emax data, which are given here for 21 compounds.

In one assay the target is T1, FSHR (Homo sapiens, UniProt P23945).
T1 construct: expressed in transfected cells; host or cells: CHO (Cho-FSHR-LUC-1-1-43)
T1 sequence (P23945 18-695): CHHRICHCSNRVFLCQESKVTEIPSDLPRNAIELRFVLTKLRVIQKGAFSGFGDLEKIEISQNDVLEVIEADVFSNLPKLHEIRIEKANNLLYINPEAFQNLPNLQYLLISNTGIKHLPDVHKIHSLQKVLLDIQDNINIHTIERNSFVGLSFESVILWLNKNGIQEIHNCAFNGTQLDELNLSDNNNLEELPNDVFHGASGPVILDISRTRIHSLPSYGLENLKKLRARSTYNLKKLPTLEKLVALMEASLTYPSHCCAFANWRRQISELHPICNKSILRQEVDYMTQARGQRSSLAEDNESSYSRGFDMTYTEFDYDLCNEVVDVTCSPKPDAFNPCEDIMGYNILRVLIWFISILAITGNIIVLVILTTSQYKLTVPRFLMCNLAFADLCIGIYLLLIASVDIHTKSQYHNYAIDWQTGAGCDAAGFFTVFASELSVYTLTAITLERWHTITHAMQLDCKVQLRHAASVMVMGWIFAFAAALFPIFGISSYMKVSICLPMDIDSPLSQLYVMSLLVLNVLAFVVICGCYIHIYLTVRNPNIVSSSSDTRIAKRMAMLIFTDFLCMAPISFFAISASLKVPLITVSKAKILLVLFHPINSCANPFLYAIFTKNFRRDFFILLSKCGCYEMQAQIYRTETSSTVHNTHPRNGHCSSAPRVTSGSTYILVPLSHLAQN
The experiment in a line: EC50 of cyclic AMP production in CHO FSHR cells + EC20 FSH (Assay A). In kind it is cell-based. An outline of the steps: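 cAMP HTRF read-out (665 nm/620 nm ratio) after 1 h at 37° C of Cho-FSHR-LUC cells treated with serially diluted test compound plus EC20 FSH ([…]) and IBMX (final 200 μM). Responses given as percent of maximal FSH-standard effect.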

The target in assay [1] is T2, follicle-stimulating hormone (FSH) receptor (Rattus norvegicus, UniProt P20395).
T2 construct: endogenous in cells; host or cells: primary rat granulosa cells
T2 sequence (P20395 18-692): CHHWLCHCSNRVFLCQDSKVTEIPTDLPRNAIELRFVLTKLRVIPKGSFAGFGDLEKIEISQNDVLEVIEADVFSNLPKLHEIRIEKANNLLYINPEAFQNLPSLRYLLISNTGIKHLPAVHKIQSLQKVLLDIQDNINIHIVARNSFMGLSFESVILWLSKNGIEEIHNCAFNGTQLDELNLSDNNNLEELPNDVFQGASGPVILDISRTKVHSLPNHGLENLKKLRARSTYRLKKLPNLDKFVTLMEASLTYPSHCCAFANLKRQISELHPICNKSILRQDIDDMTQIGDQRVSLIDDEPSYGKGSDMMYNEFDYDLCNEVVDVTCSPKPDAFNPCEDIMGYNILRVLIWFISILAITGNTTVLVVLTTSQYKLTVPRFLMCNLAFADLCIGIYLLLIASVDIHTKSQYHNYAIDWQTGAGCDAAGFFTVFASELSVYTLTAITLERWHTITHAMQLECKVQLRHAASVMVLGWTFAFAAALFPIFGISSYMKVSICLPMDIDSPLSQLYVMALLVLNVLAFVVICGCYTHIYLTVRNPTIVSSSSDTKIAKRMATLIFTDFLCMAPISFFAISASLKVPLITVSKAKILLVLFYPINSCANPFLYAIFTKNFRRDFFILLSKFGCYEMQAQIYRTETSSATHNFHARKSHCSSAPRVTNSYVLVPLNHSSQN
The experiment in a line: Rat granulosa EC50 FSH (Assay B). In kind it is cell-based. Here is the method:
Rat Granulosa EC50 FSH (Assay B)
The assay was performed pursuant to the teaching of Yanofsky et al. (2006) Allosteric activation of the follicle-stimulating hormone (FSH) receptor by selective, nonpeptide agonists (JBC 281(19): 13226-13233, which is incorporated by reference in the disclosure of the invention).

The mark [2] stands for this setting: CHO FSHR cells + EC20 FSH, cAMP HTRF, read-out: Assay A: EC50 of cyclic AMP production.
[3] abbreviates: rat granulosa cells, read-out: Assay B: Rat granulosa EC50 FSH.

Each structure is given as a SMILES string. Read-outs that look alike come from different tables or passages of the source. Bounds are passed on as bounds.

With `COc1cc2c(cc1-c1cn(C)nn1)-c1c(c(C(=O)N(C)C(C)(C)C)nn1-c1ccsc1)CO2` [Compound 153, 7-Methoxy-8-(1-methyl-1H-[1,2,3]triazol-4-yl)-1-thiophen-3-yl-1,4-dihydro-chromeno[4,3-c]pyrazole-3-carboxylic acid tert-butyl-methyl-amide], the EC50 (on FSHR (setting [2]); in assay [1] (setting [3])) was under 100 nM in each case.
For `[2H]C([2H])([2H])N(C(=O)c1nn(-c2ccsc2)c2c1COc1cc(OC)c(-c3ccn(C)n3)cc1-2)C1(C)COC1` [Compound 116], the EC50 (commonly the midpoint of the concentration-response curve) is under 100 nM on FSHR (setting [2]) and 1000 to 5000 nM in assay [1] (setting [3]).
Take `CCCn1cc(-c2cc3c(cc2OC)OCc2c(C(=O)N4CCOCC4(C)C)nn(-c4ccsc4)c2-3)cn1` [Compound 211, (3,3-Dimethyl-morpholin-4-yl)-[7-methoxy-8-(1-propyl-1H-pyrazol-4-yl)-1-thiophen-3-yl-1,4-dihydro-chromeno[4,3-c]pyrazol-3-yl]-methanone]: the EC50 (at FSHR (setting [2]); in assay [1] (setting [3])) was under 100 nM in each case.
As to `COc1cc2c(cc1C=C(C)C)-c1c(c(C(=O)NCCNC(C)=O)nn1-c1ccsc1)CO2` [Compound 7, 7-Methoxy-8-(2-methyl-propenyl)-1-thiophen-3-yl-1,4-dihydro-chromeno[4,3-c]pyrazole-3-carboxylic Acid (2-acetylamino-ethyl)-amide], the EC50 at FSHR (setting [2]) fell in the range of 1000 to 5000 nM. Also, in assay [1] (@ 6 μM, read-out: Assay B: percental effect (response) relative to the maximum response of the FSH standard), the Emax at 6 µM was 43.5%.
For the compound `[2H]C([2H])([2H])OCC(C)(C)N(C(=O)c1nn(-c2ccsc2)c2c1COc1cc(OC)c(CC(C)C)cc1-2)C([2H])([2H])[2H]` [Compound 83], the results for the EC50 (at FSHR (setting [2]); in assay [1] (setting [3])) were under 100 nM and 100 to 1000 nM, respectively.
As to `COc1cc2c(cc1-c1ccn(C)c1)-c1c(c(C(=O)N3CCN(C)CC3(C)C)nn1-c1ccsc1)CO2` [Compound 160, [7-Methoxy-8-(1-methyl-1H-pyrrol-3-yl)-1-thiophen-3-yl-1,4-dihydro-chromeno[4,3-c]pyrazol-3-yl]-(2,2,4-trimethyl-piperazin-1-yl)-methanone], the EC50 (on FSHR (setting [2]); in assay [1] (setting [3])) was under 100 nM in each case.
On to `COc1cc2c(cc1-c1cccn1C)-c1c(c(C(=O)N3CCOCC3(C)C)nn1-c1ccsc1)CO2` [Compound 125, (3,3-Dimethyl-morpholin-4-yl)-[7-methoxy-8-(1-methyl-1H-pyrrol-2-yl)-1-thiophen-3-yl-1,4-dihydro-chromeno[4,3-c]pyrazol-3-yl]-methanone], for which the EC50 is under 100 nM at FSHR (setting [2]) and 1000 to 5000 nM in assay [1] (setting [3]).
As to `COc1cc2c(cc1C1=NC([Si](C)(C)C)N=N1)-c1c(c(C(=O)N3CCOCC3(C)C)nn1-c1ccsc1)CO2` (stereo not drawn) [Compound 139, (3,3-Dimethyl-morpholin-4-yl)-[7-methoxy-1-thiophen-3-yl-8-(5-trimethylsilanyl-5H-[1,2,4]triazol-3-yl)-1,4-dihydro-chromeno[4,3-c]pyrazol-3-yl]-methanone], the EC50 on FSHR is under 100 nM; in assay [1], 1000 to 5000 nM.
Turning to `[2H]C([2H])([2H])OCC1(N(C(=O)c2nn(-c3ccsc3)c3c2COc2cc(OC)c(-c4ccn(C)c4)cc2-3)C([2H])([2H])[2H])COC1` [Compound 113], the EC50 at FSHR (setting [2]) is under 100 nM; in assay [1] (setting [3]), 100 to 1000 nM.
With `COC(=O)C1CCCN(C(=O)c2nn(-c3ccsc3)c3c2COc2cc(OC)c(OC(C)C)cc2-3)CC1` (stereo not drawn) [Compound 24, 1-(8-Isopropoxy-7-methoxy-1-thiophen-3-yl-1,4-dihydro-chromeno[4,3-c]pyrazole-3-carbonyl)-azepane-4-carboxylic acid methyl ester], the figures for the EC50 (on FSHR (setting [2]); in assay [1] (setting [3])) were under 100 nM and 1000 to 5000 nM, respectively.
On the same counts, the results for `[2H]C([2H])([2H])OCC1(C)CCCN1C(=O)c1nn(-c2ccsc2)c2c1COc1cc(OC)c(-c3ccn(C)c3)cc1-2` (stereo not drawn) [Compound 184] are under 100 nM and under 100 nM.
For `COc1cc2c(cc1C1=CCCC1)-c1c(c(C(=O)N(C)C(C)(C)C)nn1-c1ccsc1)CO2` [Compound 149, 8-Cyclopent-1-enyl-7-methoxy-1-thiophen-3-yl-1,4-dihydro-chromeno[4,3-c]pyrazole-3-carboxylic acid tert-butyl-methyl-amide], the values for the EC50 (at FSHR (setting [2]); in assay [1] (setting [3])) were under 100 nM and 100 to 1000 nM, respectively.
Consider `COc1cc2c(cc1-c1cnn(CC3OCCO3)c1)-c1c(c(C(=O)N3CCOCC3(C)C)nn1-c1ccsc1)CO2` [Compound 209, (3,3-Dimethyl-morpholin-4-yl)-[8-(1-[1,3]dioxolan-2-ylmethyl-1H-pyrazol-4-yl)-7-methoxy-1-thiophen-3-yl-1,4-dihydro-chromeno[4,3-c]pyrazol-3-yl]-methanone], for which the EC50 (on FSHR (setting [2]); in assay [1] (setting [3])) was under 100 nM in each case.
Consider `[2H]C([2H])([2H])N(C(=O)c1nn(-c2ccsc2)c2c1COc1cc(OC)c(CC(C)C)cc1-2)C1(C)COC1` [Compound 163], for which the results for the EC50 (at FSHR (setting [2]); in assay [1] (setting [3])) were under 100 nM and 100 to 1000 nM, respectively.
In the case of `COc1cc2c(cc1C=C(C)C)-c1c(c(C(=O)N3CCCC(C(=O)O)CC3)nn1-c1ccsc1)CO2` (stereo not drawn) [Compound 18, 1-[7-Methoxy-8-(2-methyl-propenyl)-1-thiophen-3-yl-1,4-dihydro-chromeno[4,3-c]pyrazole-3-carbonyl]-azepane-4-carboxylic acid], the EC50 at FSHR (setting [2]) was in the range of 1000 to 5000 nM. Further, the Emax at 30 µM in assay [1] (@ 30 μM, read-out: Assay B: percental effect (response) relative to the maximum response of the FSH standard) came out at 30%.
For `COc1cc2c(cc1-c1cccnc1)-c1c(c(C(=O)N3CCCN(C(=O)C4CCC4)CC3)nn1-c1ccsc1)CO2` [Compound 3, (4-Cyclobutanecarbonyl-[1,4]diazepan-1-yl)-(7-methoxy-8-pyridin-3-yl-1-thiophen-3-yl-1,4-dihydro-chromeno[4,3-c]pyrazol-3-yl)-methanone], the concentration giving a half-maximal response (EC50) on FSHR (setting [2]) was under 100 nM; in assay [1] (setting [3]), 1000 to 5000 nM.
On to `COc1cc2c(cc1CNC(C)=O)-c1c(c(C(=O)N3CCOCC3(C)C)nn1-c1ccsc1)CO2` [Compound 175, N-[3-(3,3-Dimethyl-morpholine-4-carbonyl)-7-methoxy-1-thiophen-3-yl-1,4-dihydro-chromeno[4,3-c]pyrazol-8-ylmethyl]-acetamide], for which the EC50 was 100 to 1000 nM on FSHR (setting [2]) and over 5000 nM in assay [1] (setting [3]).
For `[2H]C([2H])([2H])OCC1(N(C(=O)c2nn(-c3ccsc3)c3c2COc2cc(OC)c(S(=O)(=O)C(C)C)cc2-3)C([2H])([2H])[2H])COC1` [Compound 200], the 50% effective concentration (EC50) at FSHR (setting [2]) is under 100 nM; in assay [1] (setting [3]) it was over 5000 nM.
Take `COc1cc2c(cc1-c1ccn(C)n1)-c1c(c(C(=O)N3CCOCC34COC4)nn1-c1ccsc1)CO2` [Compound 154, (2,8-Dioxa-5-aza-spiro[3.5]non-5-yl)-[7-methoxy-8-(1-methyl-1H-pyrazol-3-yl)-1-thiophen-3-yl-1,4-dihydro-chromeno[4,3-c]pyrazol-3-yl]-methanone]: the concentration giving a half-maximal response (EC50) on FSHR (setting [2]) was under 100 nM; in assay [1] (setting [3]), 1000 to 5000 nM.
Turning to `[2H]C([2H])([2H])OCCC1(N(C(=O)c2nn(-c3ccsc3)c3c2COc2cc(OC)c(-c4ccn(C)c4)cc2-3)C([2H])([2H])[2H])COC1` [Compound 198], the concentration giving a half-maximal response (EC50) (on FSHR (setting [2]); in assay [1] (setting [3])) was under 100 nM in each case.
`COCCCn1cc(-c2cc3c(cc2OC)OCc2c(C(=O)N4CCOCC4(C)C)nn(-c4ccsc4)c2-3)cn1` [Compound 208, (3,3-Dimethyl-morpholin-4-yl)-{7-methoxy-8-[1-(3-methoxy-propyl)-1H-pyrazol-4-yl]-1-thiophen-3-yl-1,4-dihydro-chromeno[4,3-c]pyrazol-3-yl}-methanone]: the concentration giving a half-maximal response (EC50) (on FSHR (setting [2]); in assay [1] (setting [3])) was under 100 nM each time.
